This is an account of results in patent US20250339444A1, “Methods and Compositions for Treating Fatty Liver and Viral Infections” (The Board of Trustees of the Leland Stanford Junior …, priority 2022, published 2025).

The subject of one data set is PR8 virus (ATCC-VR-1469). Put plainly: Influenza PR8 plaque assay in MDCK cells. It counts as cell-based.
The subject of data set [1] is hepatic steatosis in C57/BL6 mice on high fat diet. Briefly: Hepatic steatosis in C57/BL6 mice on high fat diet, liver ultrasound. The settings on record: 100 mg/kg/day. The format is in vivo.
For data set [2], the system named is TMPRSS2-ACE2-Huh7.5 cells. Put plainly: Toxicity in the SARS-CoV-2 cell culture assay. The conditions noted are these: SARS-CoV-2 assay.
Another data set concerns the target apolipoprotein B (apoB) (Homo sapiens, UniProt P04114). Briefly: Binding to apolipoprotein B.
Data set [3] relates to Venezuelan equine encephalitis virus (VEEV) TC83 strain. Put plainly: microbe, parasite or virus in culture. The settings on record: U-87 MG, read-out: EC50, VEEV genome replication. It counts as cell-based.
The next data set has as its system RSV-luc5 virus. Put plainly: RSV-luc5 luciferase replication assay in HeLa cells. The settings on record: human respiratory syncytial virus, 72 h, read-out: EC50, RSV replication.
For a further data set, the system named is HBV. Briefly: Reduction of HBV surface antigen in cells infected with HBV. It counts as cell-based. The conditions noted are these: Hepatitis B virus; cells infected with HBV (FIG. 4: engineered human liver tissue). The protocol: We then discovered that A27 had antiviral activity against HBV, showing reduction in HBV surface antigen in cells infected with HBV with an EC50 of ˜1 μM (FIG. 4).

The test system of data set [4] is SARS-CoV-2. Put plainly: microbe, parasite or virus in culture. It counts as cell-based. The conditions noted are these: Severe acute respiratory syndrome coronavirus 2, read-out: EC50, SARS-CoV-2 genome replication.
The next data set concerns HepG2 cells. Put plainly: Steatosis in HepG2 cells cultured in fatty medium, Nile Red staining. The format is cell-based. The protocol:
Briefly, fatty medium was prepared by 1:1 mixture of oleic acid and palmitic acid (Sigma Aldrich) with 10% FFA-free bovine serum albumin (BSA) solution (Sigma Aldrich) in PBS. Essentially, 100 mM of oleic acid and palmitic acid was prepared in 99% methanol. Palmitic acid was prepared by shaking at 500 rpm 50° C. for 20 mins. 10 mM of oleic acid and palmitic acid was incubated with 10% BSA in PBS at 50° C. for 30 mins. A final concentration of 100 uM FFA mixture was made in the final cell culture medium. Cells were incubated in fatty medium for 4 days to induce fatty liver. Cells were then treated with A27 at various concentrations for 3 days in the presence of the fatty medium. To determine the degree of steatosis, cells were stained with 1 mg/ml Nile Red solution (Sigma Aldrich) in cell culture medium for 15 mins at 37° C. and florescence signal was measured (see FIG. 1).

For data set [5], the system named is SARS-CoV-2. Put plainly: Combination of A27 with other antivirals against SARS-CoV-2. It counts as cell-based. The text has this:
Thus, A27 can be combined with nirmatrelvir or paxlovid.

Sequence of apolipoprotein B (apoB) (P04114 28-4563, species assumed): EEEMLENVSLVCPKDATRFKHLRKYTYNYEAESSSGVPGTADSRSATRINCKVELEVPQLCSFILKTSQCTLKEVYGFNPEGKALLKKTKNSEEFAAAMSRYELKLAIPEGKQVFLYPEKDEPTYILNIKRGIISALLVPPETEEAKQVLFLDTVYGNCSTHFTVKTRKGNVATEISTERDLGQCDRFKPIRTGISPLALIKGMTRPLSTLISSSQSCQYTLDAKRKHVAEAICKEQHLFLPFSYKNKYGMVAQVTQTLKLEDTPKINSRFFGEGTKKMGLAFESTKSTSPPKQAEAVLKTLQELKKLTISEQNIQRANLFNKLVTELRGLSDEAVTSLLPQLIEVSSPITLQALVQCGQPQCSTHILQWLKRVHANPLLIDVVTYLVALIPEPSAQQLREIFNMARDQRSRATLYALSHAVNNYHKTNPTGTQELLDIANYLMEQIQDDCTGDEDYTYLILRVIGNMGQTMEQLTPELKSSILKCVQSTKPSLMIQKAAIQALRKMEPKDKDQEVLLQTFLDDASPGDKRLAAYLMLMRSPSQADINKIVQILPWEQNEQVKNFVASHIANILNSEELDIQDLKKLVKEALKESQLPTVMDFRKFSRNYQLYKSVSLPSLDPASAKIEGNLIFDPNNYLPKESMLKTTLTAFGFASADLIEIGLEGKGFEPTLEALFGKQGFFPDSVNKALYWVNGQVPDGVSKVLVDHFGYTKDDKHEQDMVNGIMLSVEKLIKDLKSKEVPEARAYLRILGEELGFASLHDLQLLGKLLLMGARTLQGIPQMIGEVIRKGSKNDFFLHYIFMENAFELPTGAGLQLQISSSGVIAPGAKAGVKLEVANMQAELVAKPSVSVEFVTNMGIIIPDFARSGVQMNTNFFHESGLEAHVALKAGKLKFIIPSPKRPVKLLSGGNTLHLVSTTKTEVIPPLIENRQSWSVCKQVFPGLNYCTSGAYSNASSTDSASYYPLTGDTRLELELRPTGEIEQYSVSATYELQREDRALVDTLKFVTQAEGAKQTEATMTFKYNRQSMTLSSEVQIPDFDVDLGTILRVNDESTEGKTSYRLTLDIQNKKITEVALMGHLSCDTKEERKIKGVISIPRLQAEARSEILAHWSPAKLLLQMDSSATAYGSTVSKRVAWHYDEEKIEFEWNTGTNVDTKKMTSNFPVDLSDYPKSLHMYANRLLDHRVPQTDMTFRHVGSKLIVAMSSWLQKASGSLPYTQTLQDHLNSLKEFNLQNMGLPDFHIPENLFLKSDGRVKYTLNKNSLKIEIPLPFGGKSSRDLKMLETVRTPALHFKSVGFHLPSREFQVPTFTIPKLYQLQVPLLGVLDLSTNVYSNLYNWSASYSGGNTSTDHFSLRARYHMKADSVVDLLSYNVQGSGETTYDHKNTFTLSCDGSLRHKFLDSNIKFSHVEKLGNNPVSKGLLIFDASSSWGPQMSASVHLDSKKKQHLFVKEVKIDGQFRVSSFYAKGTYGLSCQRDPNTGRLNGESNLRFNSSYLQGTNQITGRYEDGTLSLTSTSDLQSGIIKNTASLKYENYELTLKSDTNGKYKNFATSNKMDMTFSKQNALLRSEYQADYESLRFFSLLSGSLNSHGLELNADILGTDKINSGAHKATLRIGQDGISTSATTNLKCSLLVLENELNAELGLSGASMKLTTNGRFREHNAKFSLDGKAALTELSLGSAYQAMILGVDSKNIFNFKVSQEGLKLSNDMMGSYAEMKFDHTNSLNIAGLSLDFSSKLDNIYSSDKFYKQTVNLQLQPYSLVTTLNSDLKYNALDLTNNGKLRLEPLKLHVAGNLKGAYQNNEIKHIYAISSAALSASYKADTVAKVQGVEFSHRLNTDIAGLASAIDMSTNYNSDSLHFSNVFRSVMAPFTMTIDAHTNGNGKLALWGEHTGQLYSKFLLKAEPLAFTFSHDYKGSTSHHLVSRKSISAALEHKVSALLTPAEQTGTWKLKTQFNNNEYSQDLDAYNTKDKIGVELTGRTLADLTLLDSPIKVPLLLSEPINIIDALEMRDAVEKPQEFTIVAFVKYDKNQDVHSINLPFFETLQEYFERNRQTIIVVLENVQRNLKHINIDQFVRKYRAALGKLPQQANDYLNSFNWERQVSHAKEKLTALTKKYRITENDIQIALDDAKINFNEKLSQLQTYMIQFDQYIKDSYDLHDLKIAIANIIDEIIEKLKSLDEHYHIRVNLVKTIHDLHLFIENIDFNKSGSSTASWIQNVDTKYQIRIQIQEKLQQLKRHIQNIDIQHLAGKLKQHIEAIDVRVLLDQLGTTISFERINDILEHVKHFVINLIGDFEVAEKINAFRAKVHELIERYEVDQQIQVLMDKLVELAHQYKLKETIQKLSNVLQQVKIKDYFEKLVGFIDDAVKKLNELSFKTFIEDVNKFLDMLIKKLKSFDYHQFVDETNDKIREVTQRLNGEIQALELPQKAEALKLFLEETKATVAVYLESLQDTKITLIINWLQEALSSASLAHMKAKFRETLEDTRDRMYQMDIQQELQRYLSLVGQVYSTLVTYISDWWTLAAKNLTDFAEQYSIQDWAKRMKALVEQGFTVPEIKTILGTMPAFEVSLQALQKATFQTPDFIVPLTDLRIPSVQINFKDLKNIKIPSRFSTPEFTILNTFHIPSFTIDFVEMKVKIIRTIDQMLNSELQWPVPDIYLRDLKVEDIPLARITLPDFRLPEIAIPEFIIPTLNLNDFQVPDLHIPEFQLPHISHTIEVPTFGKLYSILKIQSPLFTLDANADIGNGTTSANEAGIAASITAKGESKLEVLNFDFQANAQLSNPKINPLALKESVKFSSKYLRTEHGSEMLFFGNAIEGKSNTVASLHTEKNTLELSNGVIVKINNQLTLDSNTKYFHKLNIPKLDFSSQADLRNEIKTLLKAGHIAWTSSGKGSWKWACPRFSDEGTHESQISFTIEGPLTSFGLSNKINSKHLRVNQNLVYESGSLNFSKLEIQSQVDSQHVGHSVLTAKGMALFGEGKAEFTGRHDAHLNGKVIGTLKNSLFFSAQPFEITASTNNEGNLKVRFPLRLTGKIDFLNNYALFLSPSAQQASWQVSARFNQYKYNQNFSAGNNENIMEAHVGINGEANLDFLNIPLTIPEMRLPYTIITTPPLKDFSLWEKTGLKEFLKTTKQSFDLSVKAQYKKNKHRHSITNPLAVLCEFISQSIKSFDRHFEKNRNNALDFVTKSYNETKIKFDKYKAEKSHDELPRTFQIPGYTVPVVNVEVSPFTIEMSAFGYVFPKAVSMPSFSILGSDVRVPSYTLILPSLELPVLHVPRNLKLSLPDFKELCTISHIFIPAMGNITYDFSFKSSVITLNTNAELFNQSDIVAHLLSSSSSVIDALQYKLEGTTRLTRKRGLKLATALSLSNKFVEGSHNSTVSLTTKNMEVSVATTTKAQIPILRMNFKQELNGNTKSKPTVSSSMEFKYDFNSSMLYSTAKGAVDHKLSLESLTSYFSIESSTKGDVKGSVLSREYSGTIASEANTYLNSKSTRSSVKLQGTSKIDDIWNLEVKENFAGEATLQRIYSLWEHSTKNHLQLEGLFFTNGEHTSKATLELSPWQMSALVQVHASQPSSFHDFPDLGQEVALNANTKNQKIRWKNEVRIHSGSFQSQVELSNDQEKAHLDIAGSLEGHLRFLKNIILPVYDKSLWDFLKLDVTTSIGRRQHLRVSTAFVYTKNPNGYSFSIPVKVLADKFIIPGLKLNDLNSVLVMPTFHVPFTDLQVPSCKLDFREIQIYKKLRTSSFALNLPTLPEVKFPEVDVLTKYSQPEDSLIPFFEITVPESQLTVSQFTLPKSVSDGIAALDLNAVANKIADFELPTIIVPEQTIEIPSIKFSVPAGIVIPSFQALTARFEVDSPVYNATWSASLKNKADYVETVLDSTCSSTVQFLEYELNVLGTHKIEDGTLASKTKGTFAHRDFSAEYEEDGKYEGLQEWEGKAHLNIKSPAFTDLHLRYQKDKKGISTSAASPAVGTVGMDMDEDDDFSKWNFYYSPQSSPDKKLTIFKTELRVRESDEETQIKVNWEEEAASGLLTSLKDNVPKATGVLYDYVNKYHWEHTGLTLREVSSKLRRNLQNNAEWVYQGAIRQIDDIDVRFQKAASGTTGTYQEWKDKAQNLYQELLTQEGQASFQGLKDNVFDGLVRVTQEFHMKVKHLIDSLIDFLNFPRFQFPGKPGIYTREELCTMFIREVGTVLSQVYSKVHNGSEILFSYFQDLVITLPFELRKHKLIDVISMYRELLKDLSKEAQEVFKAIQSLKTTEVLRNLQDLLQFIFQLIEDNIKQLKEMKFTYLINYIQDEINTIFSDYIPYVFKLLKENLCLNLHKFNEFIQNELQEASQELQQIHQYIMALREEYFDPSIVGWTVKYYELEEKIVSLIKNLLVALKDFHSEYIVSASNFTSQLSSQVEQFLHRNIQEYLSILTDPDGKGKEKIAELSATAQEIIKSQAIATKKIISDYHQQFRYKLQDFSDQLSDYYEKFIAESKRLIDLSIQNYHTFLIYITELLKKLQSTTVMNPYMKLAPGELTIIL

On to `Cn1nc(C(=O)NC2CCN(CCN3CCCC3)CC2)c2ccc(N3CCCCCC3)nc21` [Compound A27], for which the “plaque size compared to oseltamivir treated wells” value in the data set on PR8 virus (ATCC-VR-1469) is reported as “smaller-sized plaques”. Besides, the tolerability in mice entry in data set [1] (4 weeks) is “tolerated A27 well”. Besides, in data set [1] (high fat diet for 4 weeks, versus vehicle), the “hepatic steatosis measured by liver ultrasound” value is “reduces hepatic steatosis”. The toxicity result (in data set [2]; in the data set on U87-MG cells) was “without any evidence of toxicity” throughout. Besides, the “binding to apolipoprotein B (apoB)” value on apolipoprotein B (apoB) is “can bind”. Besides, the EC50 is 7.9 µM in [3]; 1.1 µM with RSV-luc5 virus; around 1 µM with HBV; 0.803 µM with SARS-CoV-2 [4]; around 0.5 µM with HepG2 cells (Homo sapiens, HepG2, 72 h, read-out: half effective concentration (EC50), inhibition of formation of steatosis). For the same compound, the “lipid accumulation (Nile Red fluorescence)” value with HepG2 cells (HepG2 cells, A27 at various concentrations for 3 days in fatty medium) is given as “dose-dependent decrease in lipid accumulation”. The “combination effect with polymerase inhibitor nucleoside analog” value with SARS-CoV-2 [5] (with a polymerase inhibitor nucleoside analog (e.g. EIDD2801)) is recorded as “additive”. Besides, the “combination effect with protease inhibitors” value with SARS-CoV-2 [5] (with protease inhibitors against SARS-CoV-2 (e.g. PF-07321332)) is recorded as “synergistic”.
